Results as given in the SangsterLogP compilation.

SMILES | logP
O=C(NCCN1CCN(c2ccc(Cl)cc2)CC1)c1ccc(F)cc1 | 3.7
Cc1ccc(N2CCN(CCNC(=O)c3ccc(F)cc3)CC2)cc1 | 2.95
COc1cccc(C(=O)NCCN2CCN(c3ccc(Cl)cn3)CC2)c1 | 3.24
N#Cc1cccnc1N1CCN(CCNC(=O)c2ccc(F)cc2)CC1 | 2.33
N#Cc1ccc(N2CCN(CCNC(=O)c3ccc(F)cc3)CC2)cc1 | 3.02

Results, then the molecule that gave them:

logP | SMILES
3.36 | O=C(NCCN1CCN(c2ccc(Cl)cn2)CC1)c1ccc(F)cc1
3.31 | COc1cccc(C(=O)NCCN2CCN(c3ccc(Cl)cc3)CC2)c1
2.47 | COc1cccc(C(=O)NCCN2CCN(c3ncccc3C#N)CC2)c1
2.83 | COc1cccc(C(=O)NCCN2CCN(c3ccc(C)cc3)CC2)c1
